Test results: ChEMBL document CHEMBL5620361, “A prodrug of the capsid assembly modulator improved druggability and lowing HBsAg and HBeAg for the treatment of chronic hepatitis B” (Eur J Med Chem, 2023)
Values joined by “and” are separate entries in the source; they are usually repeats but may differ in a detail not shown here. Equal entries are not always repeated. Active and inactive are the calls of the source. The calls are words filed in the database; no cut-off is given here.

Legend:
Hepatitis B virus [1] = test: Antiviral activity against HBV in mouse model infected with adeno-associated virus harbouring HBV genome assessed as log reduction in HBV DNA at 20 mg/kg, po qd for 8 weeks; type: functional
Hepatitis B virus [2] = test: Antiviral activity against HBV in mouse model infected with adeno-associated virus harbouring HBV genome assessed as log reduction in HBsAg at 20 mg/kg, po qd for 8 weeks; type: functional
Hepatitis B virus [3] = test: Antiviral activity against HBV in mouse model infected with adeno-associated virus harbouring HBV genome assessed as log reduction in HBeAg at 20 mg/kg, po qd for 8 weeks; type: functional
Hepatitis B virus [4] = test: Antiviral activity against HBV in human HepG2.2.15 cells harboring HBV genome assessed as formation of fast-migrating capsids lacking capsid-associated HBV DNA upto 80 nM by native agarose gel electrophoresis; type: functional, organism-based
HepG2.2.15 [5] = test: Inhibition of HBsAg secretion in human HepG2.2.15 cells harboring HBV genome incubated for 8 days; type: functional, cell-based; settings: Hepatitis B virus, time 8.0 day
Hepatitis B virus [6] = test: Antiviral activity against HBV in human HepG2.2.15 cells harboring HBV genome assessed as reduction in HBV DNA incubated for 8 days by real-time PCR analysis; type: functional, organism-based
HepG2.2.15 [7] = test: Inhibition of HBeAg secretion in human HepG2.2.15 cells harboring HBV genome incubated for 8 days; type: functional, cell-based; settings: Hepatitis B virus, time 8.0 day
Hepatitis B virus [8] = test: Antiviral activity against HBV in human HepG2.2.15 cells harboring HBV genome assessed as reduction in HBV rcDNA incubated for 8 days by Southern blot analysis; type: functional, organism-based; settings: dose <= 800.0 nM, time 8.0 day
Hepatitis B virus [9] = test: Antiviral activity against HBV in human HepG2.2.15 cells harboring HBV genome assessed as reduction in HBV ssDNA incubated for 8 days by Southern blot analysis; type: functional, organism-based; settings: dose <= 800.0 nM, time 8.0 day
[10] = Cytotoxicity against human HepG2.2.15 cells harboring HBV genome incubated for 8 days by MTT assay; type: toxicity, cell-based, HepG2 2.2.15; settings: time 8 day
Hepatitis B virus [11] = test: Antiviral activity against HBV in Balb/c mouse model infected with adeno-associated virus harbouring HBV 1.3 genome assessed as reduction in plasma HBsAg level at 100 mg/kg, po bid for 7 weeks followed by drug removal measured after 8 weeks by chemiluminescence immunoassay; type: functional, organism-based
Hepatitis B virus [12] = test: Antiviral activity against HBV in Balb/c mouse model infected with adeno-associated virus harbouring HBV 1.3 genome assessed as reduction in cytoplasmic HBcAg level at 50 to 75 mg/kg, po bid for 4 weeks by IHC analysis; type: functional, organism-based; settings: dose 50-75 mg/kg
Hepatitis B virus [13] = test: Antiviral activity against HBV in Balb/c mouse model infected with adeno-associated virus harbouring HBV 1.3 genome assessed as reduction in serum HBV DNA administered orally twice daily for 4 weeks by real-time PCR analysis; type: functional, organism-based; settings: dose 25-75 mg/kg, route po
Hepatitis B virus [14] = test: Antiviral activity against HBV in Balb/c mouse model infected with adeno-associated virus harbouring HBV 1.3 genome assessed as reduction in intrahepatic HBcAg level administered orally twice daily for 4 weeks by Western blot analysis; type: functional, organism-based; settings: dose 50-75 mg/kg, route po
[15] = Prodrug conversion in ICR mouse assessed as AUClast of 3-((3-chloro-5-(3-(4-cyanobenzyl)-4-oxo-3,4-dihydrophthalazin-1-yl)-6-fluoropyridin-2-yl)amino)propanoic acid metabolite at 20 mg/kg, po measured for 24 hrs by LC-MS/MS analysis; type: ADME, organism-based; settings: in vivo
[16] = Prodrug conversion in ICR mouse assessed as Cmax of 4-((4-(5-chloro-2-fluoro-6-((3-hydroxypropyl)amino)pyridin-3-yl)-1-oxophthalazin-2(1H)-yl)methyl)benzonitrile metabolite at 20 mg/kg, po measured for 24 hrs by LC-MS/MS analysis; type: ADME, organism-based; settings: in vivo
[17] = Toxicity in Balb/c mouse model infected with adeno-associated virus harbouring HBV 1.3 genome at 100 mg/kg, po bid; type: organism-based; settings: in vivo
Hepatitis B virus [18] = test: Antiviral activity against HBV in Balb/c mouse model infected with adeno-associated virus harbouring HBV 1.3 genome assessed as reduction in plasma HBeAg level at 100 mg/kg, po bid for 7 weeks followed by drug removal measured after 8 weeks by chemiluminescence immunoassay; type: functional, organism-based
Hepatitis B virus [19] = test: Antiviral activity against HBV in Balb/c mouse model infected with adeno-associated virus harbouring HBV 1.3 genome assessed as reduction in intrahepatic HBV DNA administered orally twice daily for 4 weeks by Southern blot analysis; type: functional, organism-based; settings: dose 50-75 mg/kg, route po
[20] = Prodrug conversion in ICR mouse assessed as Cmax of 3-((3-chloro-5-(3-(4-cyanobenzyl)-4-oxo-3,4-dihydrophthalazin-1-yl)-6-fluoropyridin-2-yl)amino)propanoic acid metabolite at 20 mg/kg, po measured for 24 hrs by LC-MS/MS analysis; type: ADME, organism-based; settings: in vivo
[21] = Prodrug conversion in ICR mouse assessed as Tmax of 3-((3-chloro-5-(3-(4-cyanobenzyl)-4-oxo-3,4-dihydrophthalazin-1-yl)-6-fluoropyridin-2-yl)amino)propanoic acid metabolite at 20 mg/kg, po measured for 24 hrs by LC-MS/MS analysis; type: ADME, organism-based; settings: in vivo
[22] = Prodrug conversion in ICR mouse assessed as Tmax of 4-((4-(5-chloro-2-fluoro-6-((3-hydroxypropyl)amino)pyridin-3-yl)-1-oxophthalazin-2(1H)-yl)methyl)benzonitrile metabolite at 20 mg/kg, po measured for 24 hrs by LC-MS/MS analysis; type: ADME, organism-based; settings: in vivo
[23] = Prodrug conversion in ICR mouse assessed as half life of 4-((4-(5-chloro-2-fluoro-6-((3-hydroxypropyl)amino)pyridin-3-yl)-1-oxophthalazin-2(1H)-yl)methyl)benzonitrile metabolite at 20 mg/kg, po measured for 24 hrs by LC-MS/MS analysis; type: ADME, organism-based; settings: in vivo
[24] = Prodrug conversion in ICR mouse assessed as AUClast of 4-((4-(5-chloro-2-fluoro-6-((3-hydroxypropyl)amino)pyridin-3-yl)-1-oxophthalazin-2(1H)-yl)methyl)benzonitrile metabolite at 20 mg/kg, po measured for 24 hrs by LC-MS/MS analysis; type: ADME, organism-based; settings: in vivo
[25] = Prodrug conversion in ICR mouse assessed as half life of 3-((3-chloro-5-(3-(4-cyanobenzyl)-4-oxo-3,4-dihydrophthalazin-1-yl)-6-fluoropyridin-2-yl)amino)propanoic acid metabolite at 20 mg/kg, po measured for 24 hrs by LC-MS/MS analysis; type: ADME, organism-based; settings: in vivo
Hepatitis B virus [26] = test: Antiviral activity against HBV in Balb/c mouse model infected with adeno-associated virus harbouring HBV 1.3 genome assessed as reduction in plasma HBV DNA at 100 mg/kg, po bid for 7 weeks followed by drug removal measured after 8 weeks by real-time PCR analysis; type: functional, organism-based
Hepatitis B virus [27] = test: Antiviral activity against HBV in Balb/c mouse model infected with adeno-associated virus harbouring HBV 1.3 genome assessed as reduction in plasma HBV DNA at 1 mg/kg, po qd for 7 weeks followed by drug removal measured after 8 weeks by real-time PCR analysis; type: functional, organism-based
Mus musculus [28] = test: Effect on HBeAg expression in Balb/c mouse model infected with adeno-associated virus harbouring HBV 1.3 genome at 1 mg/kg, po qd for 7 weeks followed by drug removal measured after 8 weeks by chemiluminescence immunoassay; type: functional, organism-based
Mus musculus [29] = test: Effect on HBsAg expression in Balb/c mouse model infected with adeno-associated virus harbouring HBV 1.3 genome at 1 mg/kg, po qd for 7 weeks followed by drug removal measured after 8 weeks by chemiluminescence immunoassay; type: functional, organism-based
Mus musculus [30] = test: Effect on intrahepatic HBcAg expression in Balb/c mouse model infected with adeno-associated virus harbouring HBV 1.3 genome at 1 mg/kg, po qd for 4 weeks by Western blot analysis; type: functional, organism-based
Hepatitis B virus [31] = test: Antiviral activity against HBV in Balb/c mouse model infected with adeno-associated virus harbouring HBV 1.3 genome assessed as reduction in intrahepatic HBV DNA at 1 mg/kg, po qd for 4 weeks by Southern blot analysis; type: functional, organism-based
[32] = AUClast in ICR mouse at 20 mg/kg, po measured for 24 hrs byb LC-MS/MS analysis; type: ADME, organism-based; settings: in vivo
[33] = Half life in ICR mouse at 20 mg/kg, po measured for 24 hrs byb LC-MS/MS analysis; type: ADME, organism-based; settings: in vivo
[34] = Tmax in ICR mouse at 20 mg/kg, po measured for 24 hrs byb LC-MS/MS analysis; type: ADME, organism-based; settings: in vivo
[35] = Cmax in ICR mouse at 20 mg/kg, po measured for 24 hrs byb LC-MS/MS analysis; type: ADME, organism-based; settings: in vivo

| SMILES | Activity (Hepatitis B virus [4]) | inhibition (HepG2.2.15 [5]) | inhibition (HepG2.2.15 [7]) | Activity (Hepatitis B virus [8]) | Activity (Hepatitis B virus [9]) | CC50 at 192 h [10] | AUClast [15] | Cmax [16] | Cmax [20] | Tmax [21] | AUClast [24] | other results |
| --- | --- | --- | --- | --- | --- | --- | --- | --- | --- | --- | --- | --- |
| CCOC(=O)C1=C(CN2CCN3C(=O)N(CC(C)(C)C(=O)O)C[C@@H]3C2)N=C(c2nccs2)N[C@H]1c1cccc(F)c1C [LINVENCORVIR] | – | – | – | – | – | – | – | – | – | – | – | log(activity) (Hepatitis B virus [1]): 3; log(activity) (Hepatitis B virus [2]): 2.4; log(activity) (Hepatitis B virus [3]): 1.5 |
| N#Cc1ccc(Cn2nc(-c3cc(Cl)c(NCCC(=O)O)nc3F)c3ccccc3c2=O)cc1 | Active | inactive | inactive | Dose-Dependent Effect | Dose-Dependent Effect | > 100000 nM | – | – | – | – | – | EC50 (Hepatitis B virus [6]): 1290 nM and 170 nM |
| CC(C)[C@H](N)C(=O)OCCCNc1nc(F)c(-c2nn(Cc3ccc(C#N)cc3)c(=O)c3ccccc23)cc1Cl | Active | inactive | inactive | Dose-Dependent Effect | Dose-Dependent Effect | 63100 nM | 13560 ng·h/mL | 1065 ng/mL | 3729 ng/mL | 1.67 h | 2296 ng·h/mL | Activity (Hepatitis B virus [11]): Active; Activity (Hepatitis B virus [12]): Dose-Dependent Effect; Activity (Hepatitis B virus [13]): Dose-Dependent Effect; Activity (Hepatitis B virus [14]): Dose-Dependent Effect; Activity [17]: Non-Toxic; Activity (Hepatitis B virus [18]): Active; Activity (Hepatitis B virus [19]): Dose-Dependent Effect; Tmax [22]: 0.42 h; t1/2 [23]: 2.32 h; t1/2 [25]: 2.85 h; Activity (Hepatitis B virus [26]): Active |
| C=C1[C@H](CO)[C@@H](O)C[C@@H]1n1cnc2c(=O)[nH]c(N)nc21 [ENTECAVIR ANHYDROUS] | – | – | – | – | – | > 1000 nM | – | – | – | – | – | Activity (Hepatitis B virus [27]): Active; Activity (Mus musculus [28]): inactive; Activity (Mus musculus [29]): inactive; Activity (Mus musculus [30]): inactive; Activity (Hepatitis B virus [31]): Active |
| CC(C)OC(=O)[C@@H](C)N[P@](=O)(OCCCNc1nc(F)c(-c2nn(Cc3ccc(C#N)cc3)c(=O)c3ccccc23)cc1Cl)Oc1ccccc1 (single isomer, unassigned) | – | – | – | – | – | – | 2727 ng·h/mL | 48.2 ng/mL | 321 ng/mL | – | 186 ng·h/mL | – |
| N#Cc1ccc(Cn2nc(-c3cc(Cl)c(NCCCO)nc3F)c3ccccc3c2=O)cc1 | Active | inactive | inactive | Dose-Dependent Effect | Dose-Dependent Effect | > 100000 nM | 498 ng·h/mL | – | 62.2 ng/mL | 2.67 h | – | AUC(0-t) at 24 h [32]: 61.4 ng·h/mL; half-life [33]: 0.99 h; Tmax [34]: 2 h; Cmax [35]: 27 ng/mL |
